Values quoted from earlier work as cited in patent US20120087859A1, “NANOCARRIER HAVING ENHANCED SKIN PERMEABILITY, CELLULAR UPTAKE AND TUMOUR DELIVERY PROPERTIES” (GWANGJU INSTITUTE OF SCIENCE AND TECHNOLOGY, priority 2010, published 2012).

System: NIH/3T3 fibroblasts
Conditions: cultured NIH/3T3 fibroblasts in vitro

In the case of CC(C)(O)C(=O)c1ccc(OCCO)cc1 [Irgacure 2959, 2-hydroxy-1-[4-(2-hydroxyethoxy)phenyl]-2-methyl-1-propanone], the cytotoxicity is listed as “almost non-cytotoxic”.
